Literature values as cited in patent publication US20160075995A1, “SWEAT GLAND-DERIVED STEM CELLS AND METHODS OF USE” (priority 2014, published 2016).

Tests used:
[1] = DMSO
[2] = published reports

## c1cc(-c2cnn3cc(-c4ccc(OCCN5CCCCC5)cc4)cnc23)ccn1 [dorsomorphin]
[1]
  solubility: soluble in DMSO
[2]
  toxicity: low toxicity
